These results are taken from PubChem BioAssay AID2305 (GlaxoSmithKline (GSK), 2010).

As usually defined, the IC50 is the midpoint of a concentration-inhibition curve. Low readings indicate greater potency, high ones weaker potency.

This test concerns P. falciparum 3D7 growth, pLDH absorbance. The test is described as follows: P. falciparum 3D7 growth inhibition, dose response, strain 3D7 (AID 2305).

For `O=S(=O)(Nc1cccc(CCN2CCC(N3CCCCC3)CC2)c1)c1ccc(-c2ccccc2)cc1`, the IC50 was found to be 1120 nM.
With `Cc1[nH]c2ccc(NS(C)(=O)=O)cc2c1C1CCN(CCC2CCN(C(=O)/C=C/c3ccc(Cl)c(Cl)c3)CC2)CC1` the figure was 840 nM; with `CCOc1ccc(C(=O)Nc2cc(Br)c3c(c2)CNCC3)cc1C(F)(F)F`, 940 nM.
With `CCC[C@@H]([C@@H](CC1CCC(C)CC1)C(=O)N[C@@H](CCCCNC(=O)c1ccccn1)C(=O)Nc1nccs1)N(O)C=O` (stereo partly specified) the figure was 50 nM; with `NCC1CCCN1Cc1cccc(-c2ccc(-c3nc4ccc(C(F)(F)F)cc4[nH]3)cc2)c1` (stereo unspecified), 780 nM.
`CCCCCCCNc1cc(C)nc2ccc(OC)cc12` displayed a half-maximal inhibitory concentration (IC50) of 670 nM.
With `Cc1ccc(C(=O)NCC2CCN(c3ccc(C(F)(F)F)cc3NC(=O)c3ccco3)CC2)cn1` the figure was 780 nM.
With `O=C(Nc1cccc(-c2ccc(-c3nc4ccc(C(F)(F)F)cc4[nH]3)cc2)c1)Nc1ccc(Cl)c(Cl)c1` the figure was 890 nM; with `COc1cccc(C(=O)NC(C=Cc2ccccc2)c2cc(Cl)c3cccnc3c2O)c1` (stereo unspecified), 860 nM; with `CC1CCCCN1Cc1cccc(-c2c[nH]c3nc(NC4CCCC4)ncc23)c1` (stereo unspecified), 1310 nM.
The result for `O=C(/C=C/c1ccc(Cl)c(Cl)c1)N1CCC(NCc2ccc3[nH]ccc3c2)CC1` reads 1020 nM.
Turning to `Fc1ccc2c(NN=Cc3ccccc3)ccnc2c1`, the 50% inhibitory concentration (IC50) was found to be 740 nM.
With `Cc1ccc2cc(NCCCCCCCCON3C(N)=NC(N)=NC34CCCCC4)ccc2n1`, the 50% inhibitory concentration (IC50) came out at 160 nM.
The result for `COc1ccc2c(C)cc(NCCCN(C)C)nc2c1` reads 1100 nM; that for `COc1ccc2nc(C)cc(NN=Cc3ccc([N+](=O)[O-])cc3)c2c1`, 690 nM; that for `NC1CCN(c2cnn(Cc3cccc(NC(=O)Nc4ccc(-c5ccccc5)cc4)c3)c(=O)c2Cl)CC1`, 1140 nM.
`Fc1ccc2nc(-c3cccc(-c4cccc(CN5CCN(c6cnccn6)CC5)c4)c3)[nH]c2c1` showed an IC50 of 1060 nM.
The result for `Cc1[nH]nc2cc(Nc3ccnc(Nc4cccc(CN5CCOCC5)c4)n3)ccc12` reads 1580 nM; that for `CN(c1cc(NC(=O)c2cccs2)ccn1)C1CCN(Cc2cccc(F)c2)CC1`, 680 nM; that for `CCOc1ccc(C=CC(=O)Nc2ccc3nc(N4CCOCC4)cc(C)c3c2)cc1OC`, 900 nM.
With `COc1ccc(CNCc2cccc(-c3ccc(-c4nc5c(C)cccc5[nH]4)s3)c2)cc1` the figure was 260 nM; with `CS(=O)(=O)Nc1ccc2[nH]cc(C3CCN(CC4CCN(C(=O)/C=C/c5ccc(Cl)c(Cl)c5)CC4)CC3)c2c1`, 720 nM; with `O=S(=O)(Nc1cccc(CCN2CCC(N3CCCCC3)CC2)c1)c1cccc(C(F)(F)F)c1`, 980 nM.
`COc1cc(NC(=O)C(c2ccc(Cl)cc2)C(C)C)cc(OC)c1OC` (stereo unspecified) returned a half-inhibitory concentration (IC50) of 530 nM.
The result for `COc1cc(Nc2ccnc3ccc(C(F)(F)F)cc23)ccc1OCCCc1ccccc1` reads 770 nM; that for `COc1ccccc1Oc1c(N(C)S(=O)(=O)c2ccc(C(C)C)cc2)nc(C(F)(F)F)nc1N(C)S(=O)(=O)c1ccc(C(C)C)cc1`, 850 nM; that for `CN1CCCC(CN2CCN(Cc3cccc(-c4cccc(-c5nc6ccccc6[nH]5)c4)c3)CC2)C1` (stereo unspecified), 140 nM.
The result for `CCOc1c(CNCCCNc2cc(=O)c3ccccc3[nH]2)cc(I)cc1OC` reads 1170 nM; that for `COc1ccc(CCN(C)CCOc2ccc(NC(=O)c3cccc4cc5ccccc5nc34)cc2)cc1OC`, 680 nM; that for `CO/N=C(\C)c1ccc2c(c1)CCN(CCC1CCC(NC(=O)/C=C/c3ccc(F)cc3)CC1)CC2` (stereo unspecified), 1070 nM.
With `CCc1cccc2c(C#N)cn(CC(=O)Nc3ccc(OC)cc3)c12` the figure was 770 nM; with `O=C(N[C@@H](Cc1ccccc1)C(=O)NC1CCCCC1)c1ccc(O)c(-c2ccc(Cl)c(Cl)c2)c1`, 230 nM; with `O=C(Nc1cccc(-c2csc(-c3ccccc3)n2)c1)c1cccs1`, 800 nM.
The compound `CCCNC(=O)C1Cc2c([nH]c3cc(Br)ccc23)C2(CCN(CCc3ccccc3)CC2)N1` (stereo unspecified) came in with a half-maximal inhibitory concentration (IC50) of 970 nM.
The compound `Cc1cc(N(C)C)nc(Nc2ccc(NC(=O)c3cccc(F)c3)cc2)n1` returned an IC50 of 1000 nM.
With `Oc1ccc(-c2ccccc2)cc1CNC1CCCCC1` the figure was 500 nM; with `c1ccc(CNc2nc(NCCN3CCCCC3)nc3ccccc23)cc1`, 1020 nM; with `CC(=O)N(Cc1ccc(-c2ccc(CNCCc3ccccc3)cc2)cc1)C1CCN(Cc2ccccc2)CC1`, 940 nM.
The result for `CN1CCN(CCCN(Cc2ccc(-c3cccc(CNCc4ccc5c(c4)OCO5)c3)cc2)C(=O)NC2CCCCC2)CC1` reads 990 nM; that for `Cc1cc(NN=Cc2ccccc2F)c2cc(F)ccc2n1`, 300 nM.
In turn, `O=C(Nc1ccc2c(c1)CCC2)c1ccc(N2CCN(c3ccncc3)CC2)cn1` yielded an IC50 of 860 nM.
The result for `O=C(NCC1CC1)C1CCN(C(c2ccc(Cl)cc2)c2ccc(Cl)cc2)CC1` reads 190 nM.
Compound `COc1ccc(Nc2ncc3c(-c4cccc(NC(=O)Cc5ccncc5)c4)c[nH]c3n2)cc1OC` yielded a half-inhibitory concentration (IC50) of 1230 nM.
The result for `CC(C)(C)C(Cn1ccnc1)NCc1cn[nH]c1-c1ccc(-c2ccccc2)cc1` (stereo unspecified) reads 1060 nM; that for `CN1CCC(NCc2ccc(-c3ccc(S(=O)(=O)NCc4ccccc4)s3)cc2)CC1`, 770 nM.
The result for `O=C(NCCN1CCOCC1)c1ccc(N2CCC(Oc3ccc4ccccc4c3)CC2)nc1` reads 760 nM; that for `CCc1cc(C(=O)c2cccc(C)c2)c(NC(=O)CN2CCN(C(=O)c3ccco3)CC2)s1`, 450 nM; that for `Cc1cc(N2CCCC2)nc(Nc2ccc(NC(=O)c3ccco3)cc2)n1`, 840 nM.
The compound `CCCCC(N)COc1cccc2c(-c3ccncc3)c(-c3cccc(NC(=O)Nc4ccccc4)c3)nn12` (stereo unspecified) yielded a 50% inhibitory concentration (IC50) of 880 nM.
With `O=C(Nc1cccc(-c2ccc(-c3nc4ccccc4[nH]3)s2)c1)c1ccncc1` the figure was 780 nM.
On to `Cc1cccc(C)c1CNc1ccnc2ccccc12`, for which the IC50 was determined as 1200 nM.
With `CC(C)COc1ccc(Cl)cc1Cc1nc(-c2nc3ccc(CN4CCN(C)CC4)cc3[nH]2)co1` the figure was 910 nM; with `CCN(CC)C(=NCCCCCCN=C(/N=C(\N)Nc1ccc(Cl)c(Cl)c1)N(CC)CC)/N=C(\N)Nc1ccc(Cl)c(Cl)c1`, 760 nM; with `Cc1cc2c(NC(=O)NC3CCN(CCc4ccccc4Cl)CC3)cccc2cn1`, 390 nM.
The result for `Cc1nnc2c(NC(=O)NC3CCCC3)cc3cc(-c4ccc(CN(C)C)cc4)ccc3n12` reads 1470 nM; that for `Cc1nc(C)c(CC(=O)Nc2ccc(-c3cccc(-c4nc5ccc(C(F)(F)F)cc5[nH]4)c3)cc2)s1`, 920 nM; that for `COc1ccc(N2CCN(CCCCNC(=O)c3ccc(NC(=O)c4cc(C(F)(F)F)cc(C(F)(F)F)c4)cc3)CC2)c(OC)c1`, 150 nM.
The result for `CC[C@H]1CN2CC[C@@H]1C[C@H]2[C@H](O)c1cc(-c2ccccc2)nc2ccc(O)cc12` reads 190 nM; that for `Cc1cc(NC2CCCC2)nc(Nc2ccccc2F)n1`, 930 nM.
For the compound `CC(C)CCNC(=O)C1Cc2c([nH]c3ccc(Br)cc23)C2(CCN(Cc3ccccc3)CC2)N1` (stereo unspecified), the concentration for half-maximal inhibition (IC50) came to 820 nM.
The result for `O=C(NC1CC1)c1cnc(N2CCN(Cc3ccc(Cl)cc3)CC2)c(Cl)c1` reads 850 nM; that for `CCC(NCc1ccc(-c2cncc(C(=O)NCC(C)C)c2)cc1)c1ccccc1` (stereo unspecified), 940 nM; that for `O=C(NCCCCCN1CCC(c2c[nH]c3ccccc23)CC1)Nc1cccc(Cl)c1`, 1020 nM.
`c1cc(C2=N[C@H]3CCCC[C@@H]3N2)ccc1OCCCCCOc1ccc(C2=N[C@@H]3CCCC[C@H]3N2)cc1` yielded an IC50 of 230 nM.
On to `O=C(N[C@H]1CCN(CCc2ccc(O[C@H]3CCNC3)c(Br)c2)C1)c1ccc(Cl)c(Cl)c1`, for which the IC50 stood at 660 nM.
With `O=S(=O)(NCCN1CCCC1)c1ccc(-c2ccc(CNCc3ccc(F)cc3)cc2)cc1`, the IC50 is 790 nM.
The result for `COc1ccc(Nc2ncc3c(-c4cccc(NC(=O)Cc5cccc(F)c5)c4)c[nH]c3n2)cc1OC` reads 570 nM; that for `CC(C)CCN1CCC(Oc2cccc(NC(=O)c3ccc(C(F)(F)F)cc3)c2)CC1`, 630 nM.
With `Cc1cc(NCCCCCCN)nc(Nc2ccc(Cl)cc2)n1` the figure was 450 nM.
The result for `COc1cccc2cc(C(=O)N[C@@H](CC(C)C)C(=O)N[C@H](/C=N/N(C)C(=O)OC(C)(C)C)Cc3ccccc3)oc12` reads 260 nM; that for `N#Cc1ccc(-n2cc(C(=O)Nc3ccc4c(c3)CCN(C3CCC3)CC4)c(C(F)(F)F)n2)cc1`, 290 nM.
On to `COc1cccc(C(O)CNc2ccnc(Nc3ccc(Cl)cc3)n2)c1` (stereo unspecified), for which the IC50 amounted to 610 nM.
`COc1ccc(-c2cccc(NC(=O)c3cccc(Cl)c3)c2)cc1CN1CCCC1` registered a half-maximal inhibitory concentration (IC50) of 730 nM.
The result for `CCCCOc1cc(OC)c2ccccc2c1CCNCCCCNCCc1c(OCCCC)cc(OC)c2ccccc12` reads 1050 nM.
The result for `CN(CCN)Cc1cccc(-c2cccc(-c3nc4ccc(C(F)(F)F)cc4[nH]3)c2)c1` reads 510 nM.
With `Fc1cc(Cl)ccc1Nc1ccnc2cc(-c3ccc(CNCCN4CCOCC4)o3)ccc12` the figure was 280 nM; with `CCOC(=O)c1ccc(NC(=O)Nc2ccc(-c3ccc(-c4nc5c(C)cccc5[nH]4)s3)cc2)cc1`, 200 nM.
Turning to `CC(C)CCNCc1ccc(OCc2ccccc2COc2ccc(CNCCC(C)C)cc2I)c(I)c1`, the IC50 came to 430 nM.
The result for `CC(C)COc1ccc(Cl)cc1Cc1ccc(-c2nc3c(F)cccc3[nH]2)o1` reads 810 nM; that for `CN(C)CCOc1cc(O)c2c(c1)OC(C)(C)C=C2c1cccs1`, 290 nM; that for `Cc1[nH]c(C)c(-c2ccc(OCCCCSc3ccncc3)cc2)c(=O)c1Br`, 250 nM.
The result for `CCc1ccc(C2CCN(CCCCNC(=O)c3ccc(-c4ccc(Cl)cc4)cc3)CC2)c(O)c1` reads 890 nM.
With `COc1ccc2nccc(N3CCC(SCCNS(=O)(=O)c4ccc5c(c4)OCCO5)C3)c2n1` (stereo unspecified) the figure was 980 nM; with `CCN(CC)CCOc1ccc(NC(=O)c2oc3ccccc3c2C=Cc2ccccc2)cc1`, 220 nM.
`CN(CCCNCc1ccc2ccccc2c1)CCCNCc1ccc2ccccc2c1` returned an IC50 of 390 nM.
The result for `O=C(Nc1cccc(C(F)(F)F)c1)c1cccc(S(=O)(=O)NC2CCN(CC3CCCCC3)C2)c1` (stereo unspecified) reads 590 nM.
